Measurements taken from patent US8748464B2, “Use of SIRT1 activators or inhibitors to modulate an immune response” (The J. David Gladstone Institutes, priority 2008, dated 2014).

Columns and labels:
[1] = system: FLAG-FoxP3 in 293 T cells; assay: Immunoprecipitation/western blot of acetylated FLAG-FoxP3 or HA-AML1/Runx1 in 293 T cells cotransfected with p300; type: cell-based
Source text: FIGS. 10A-D. SIRT1 interacts with FoxP3 and inhibition of SIRT1 deacetylase activity increases acetylation of FoxP3. (A) Communoprecipitation/western blot analysis of FLAG-tagged FoxP3 and HA-tagged SIRT1 after transfection of corresponding expression vectors or empty vector controls into 293T cells. (B) Communoprecipitation assay of SIRT1 and FoxP3 deletion mutants. A schematic summary of the binding of FoxP3 mutants to SIRT1 is shown. The forkhead box (FH) indicates the DNA binding domain ZnF, zinc finger domain; LZ, leucine zipper. […] An expression vector for the p300 acetyltransferase was cotransfected with FoxP3. (D) The same experiment as in (C) using HA-AML1/Runx1. Immunoprecipitations were performed with either anti-FLAG antibody coupled to agarose (α-FLAG agarose) (C) or anti-hemagglutinin antibody coupled to agarose (α-HA agarose) (D) and western blotting with rabbit polyclonal antibody to acetyl-lysine (α-acetyl lysine) (α-AcK), α-FLAG or α-HA antibodies.

Jurkat T cells [2] = assay: Real-time RT-PCR of IL-2 mRNA in α-CD3/28-activated Jurkat T cells; type: cell-based, human
Protocol: Viral supernatant containing 1500 ng of p24 was used to infect 18×10^6 JurkatT cells. Infections were carried out in 6-well plates at 2400 rpm in a Beckman-Coulter centrifuge for 2 h at 32° C. in the presence of polybrene (1 μg/ml, Sigma).
Total RNA was extracted using RNA STAT-60 reagent (Tel-Test) according to the manufacturer's instruction. The first strand cDNA was generated using 2 μg of total RNA and SuperScript reverse transcriptase (Invitrogen). […] Relative gene expression ratios between stimulated and nonstimulated conditions were calculated by the equation, ratio=2^−ΔΔCt, comparative Ct method (Applied Biosystems).
Infected cultures were activated for 2 h and 8 h with α-CD3/28 antibodies. (B) Real-time RT-PCR analysis of IL-2 mRNA levels in infected cultures 2 h after activation with α-CD3/28.

SIRT1 [3] = molecular target: T1, SIRT1 (Homo sapiens, UniProt Q96EB6); assay: In vitro deacetylation of acetylated recombinant p65 by recombinant SIRT1, western blot α-AcK310 p65; type: biochemical; set-up: purchased Biomol; conditions: synthetic Tat 0.1 μg or nicotinamide 10 mM, preincubated 15 min; NAD 1 mM, 3 h, 37° C.
T1 sequence (Q96EB6 1-747): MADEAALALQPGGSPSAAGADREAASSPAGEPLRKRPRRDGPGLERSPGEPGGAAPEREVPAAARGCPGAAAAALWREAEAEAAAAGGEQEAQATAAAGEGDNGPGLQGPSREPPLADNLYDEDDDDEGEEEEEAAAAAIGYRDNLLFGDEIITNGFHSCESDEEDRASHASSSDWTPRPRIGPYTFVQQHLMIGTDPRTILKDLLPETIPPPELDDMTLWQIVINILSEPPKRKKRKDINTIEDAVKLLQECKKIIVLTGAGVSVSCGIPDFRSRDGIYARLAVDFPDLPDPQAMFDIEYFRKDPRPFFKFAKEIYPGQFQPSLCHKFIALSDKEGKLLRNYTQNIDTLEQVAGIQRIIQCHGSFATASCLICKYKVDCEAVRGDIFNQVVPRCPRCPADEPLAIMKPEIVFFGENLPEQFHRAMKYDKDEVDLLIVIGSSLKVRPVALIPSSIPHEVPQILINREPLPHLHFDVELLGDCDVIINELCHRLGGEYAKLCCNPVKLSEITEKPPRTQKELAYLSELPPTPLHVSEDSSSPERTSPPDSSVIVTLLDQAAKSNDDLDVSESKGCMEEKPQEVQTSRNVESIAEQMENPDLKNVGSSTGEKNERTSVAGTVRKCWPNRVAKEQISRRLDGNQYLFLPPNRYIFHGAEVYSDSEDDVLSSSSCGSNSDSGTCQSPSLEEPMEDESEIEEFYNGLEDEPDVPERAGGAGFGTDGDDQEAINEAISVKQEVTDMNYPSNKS
Protocol: Recombinant p65 protein prepared from baculovirus-infected Sf9 insect cells (BD Biosciences) was acetylated by immunoprecipitated p300 overexpressed in 293 cells as previously described (Chen et al., 2005). Acetylated p65 protein was incubated with recombinant SIRT1 (1 μg/5U; Biomol) in SIRT1 deacetylase buffer (50 mM Tris-HCl pH 9, 4 mM MgCl2, 0.2 mM DTT) in the presence of NAD (1 mM; Sigma) for 3 h at 37° C. […] Reactions were stopped by the addition of SDS loading buffer, boiled, and after brief centrifugation, analyzed by western blotting with rabbit a-AcK310 p65 (Chen et al., 2005) or mouse α-p65 antibodies (sc-8008, Santa Cruz).
Next, we examined the effect of Tat on deacetylation of p65. In vitro acetylated recombinant p65 protein was incubated with recombinant SIRT1 and synthetic Tat proteins. The extent of deacetylation was determined by western blotting with antibody specific for acetylated K310 in p65 (α-AcK310 p65). […]
FIGS. 5A-D. Tat inhibits the SIRT1 deacetylase activity (A) In vitro deacetylation assay of recombinant SIRT1 in the presence of synthetic Tat (aa 1-72). The rate of 1 μM SIRT1 was calculated for 200 μM fluorogenic deacetylase substrate (aa 379-382 of p53) in the presence of twelve concentrations of synthetic Tat. […] Total cell lysates were analyzed by western blotting with α-AcK310 p65 or α-T7 antibodies. […]

[4] = system: FLAG-FoxP3 in 293 T cells; assay: Western blot of FLAG-FoxP3 (wild type or mutant) or FLAG-AML1/Runx1 expression in 293 T cells; type: cell-based; conditions: 293 T cells
Protocol: To determine whether the three newly identified acetylated lysine residues regulate FoxP3 stability, mutants were generated in which each of three lysine residues was substituted to arginines (KR), a conservative mutation that preserves the positive charge of the residue.
To investigate the effect of SIRT1 inhibition and the three newly identified acetylation sites on FoxP3 protein stability, wild type and 3KR mutant FoxP3 protein expression was measured after treatment with cycloheximide (CHX), a general inhibitor of protein translation.
(B) Scheme of acetylated lysine residues identified by mass spectrometry using immunoprecipitated FLAG-FoxP3 protein. The murine protein is shown.

Jurkat T cells [5] = assay: IL-2 protein ELISA in supernatant of α-CD3-stimulated Jurkat T cells infected with EF-1α-GFP or EF-1α-Tat-GFP viruses; type: cell-based, human; conditions: 16 hrs
Protocol: Lentiviral vectors, which contained the heterologous elongation factor 1α (EF-1α) promoter driving Tat and GFP expression, were generated. High titer viral stocks were produced and used to infect Jurkat T cells. […] Infected cultures were stimulated with antibodies specific for the CD3 receptor and treated with increased concentrations of resveratrol (0.4 μM, 2 μM, and 10 μM), a known SIRT1 activator for 16 hrs. IL-2 protein was measured in the culture supernatant by ELISA assay. Following stimulation with α-CD3 antibody, IL-2 protein was superinduced ˜4-fold by wild type Tat (FIG. 8A). In cells expressing Tat, ˜2300 pg/ml of IL-2 protein was detected in response to α-CD3 treatment, whereas in control cells, only ˜600 pg/ml of IL-2 protein was induced.
The effects of small molecule of SIRT1 ([…]) on T cell hyperactivation in Tat-expressing cells were examined. Jurkat T cells were infected with EF-1α-GFP or EF-1α-Tat-GFP viruses (FIG. 8B). Infected cultures were stimulated with α-CD3 antibody and treated with SRT2183 (0.2, 1, and 5 μM) for 16 hrs.
FIGS. 8A and 8B. Resveratrol and small molecule activator of SIRT1 (SRT2183) suppresses T cell hyperactivation by Tat. (A) IL-2 protein levels measured by ELISA in the supernatant of infected cultures. 24 hrs after infection with EF1α-GFP and EF1α-Tat-GFP viruses, Jurkat T cells were stimulated with α-CD3 antibody in the presence of increased concentrations of resveratrol (0.4, 2, and 10 μM) for 16 hrs. (B) 24 hrs after infection with EF1α-GFP and EF1α-Tat-GFP viruses, Jurkat T cells were stimulated with α-CD3 antibody in the presence of increased concentrations of SRT2183 (0.2, 1, and 5 μM) for 16 hrs. IL-2 protein levels were measured by ELISA in the supernatant of infected cultures.

SIRT1 [6] = molecular target: T1, SIRT1; conditions: Howitz et al. 2003; Baur et al. 2006; cited from earlier work

SMILES	acetylation levels of FoxP3 [1]	acetylation of AML1/Runx1 [1]	effect of combination with Tat on IL-2 expression (Jurkat T cells [2])	IL-2 mRNA levels (Jurkat T cells [2]; noninfected Jurkat T cells, nicotinamide 10 mM 1 h before α-CD3/28)	deacetylation of p65 (K310) by SIRT1 (SIRT1 [3])	FoxP3 mRNA levels [4]	FoxP3 protein expression ([4]; nicotinamide 5 mM, Ex-527 50 μM or TSA 400 nM, 16 hours)	ability of Tat to superinduce IL-2 production (Jurkat T cells [5]; 10 μM)	superinduction of IL-2 protein in Tat-expressing cells (Jurkat T cells [5]; 0.4, 2 and 10 μM)	activation of SIRT1 enzymatic activity (SIRT1 [6])
NC(=O)c1cccnc1 [nicotinamide]	increased acetylation levels of FoxP3	increased to the same extent	no additive effect	superinduced IL-2 mRNA to similar levels as Tat	same inhibition of p65 deacetylation	No effect	upregulation of protein expression	–	–	–
Oc1ccc(/C=C/c2cc(O)cc(O)c2)cc1 [resveratrol]	–	–	–	–	–	–	–	completely impaired	abolished by resveratrol in a concentration dependent manner	(weak) reversible activator
